The results in this text go back to US20240277797A1, “METHOD FOR TREATING OR PREVENTING NEOVASCULAR EYE DISEASE” (Suzhou Mingren Pharmaceutical Biotechnology Co., Ltd., priority 2022, published 2024).

Where a SMILES comes first, the peptide text is derived from it.

The test system of one data set is CNV lesions. As to conditions: mouse, in vivo, ip. On the procedure: One week after laser induction, mice with choroidal neovascularization were randomly divided into two groups (10 mice per group), and injected intraperitoneally with 5 mg of FITC-JP1 and 0.99 mg of FITC 100 uL (both groups were injected with equal amounts of FITC intraperitoneally), respectively. The intensity of FITC in the living retina was determined using the FFA method (n=5/group). To evaluate the accumulation of FITC in CNV lesions, mice were euthanized at 1, 3, 8, 24, and 48 h after intraperitoneal injection of FITC-JP1 or FITC, respectively. Then, choroidal spreads were observed by fluorescence microscopy.

A short description of data set [1]: Solubility of the synthesized peptides. The class given is physicochemical. On the procedure: Peptide JP1 and others were synthesized by GL Biochem (Shanghai) Ltd. and Hybio Pharmaceutical Co., Ltd. (Shenzhen, China, under standard GMP conditions. Purity >98%, water-soluble. Freeze dried powder is stored for a long time at −20° C.
Data set [2] concerns streptozotocin (STZ)-induced diabetes mouse model. The data set is described as follows: Streptozotocin-induced diabetes mouse model: retinal vascular density and leakage. Particulars: STZ diabetic mice, intraocular injection once a week, 4 times; compared to normal mice of the same age. The class given is in vivo. Here is the method: C57BL/6 mice (male, 3-5 weeks old) were administered with intraperitoneal injection of streptozotocin (STZ) (7.5 mg/mL; S-0130, Sigma Aldrich, St. Louis, MO, USA), fresh dissolved Na Citrate (CAM) buffer (pH: 4.5-4.7; S4641, Sigma) at a dose of 50 mg/kg, once daily, for 5 consecutive days. After one week, blood sugar ≥300 mg/dL was regarded as the onset of diabetes. Only mice with sustained high sugar for 3 weeks were used for subsequent experiments. […] The blood glucose of mice was measured every month to confirm the status of diabetes. Two months after the onset of diabetes, the mice were randomly divided into four groups with 10 mice in each group. […]
After the mice were anesthetized, 1 mL of PBS containing 40 mg/mL fluorescein isothiocyanate-glucan was perfused into the left ventricle (average mol wt: 2×10^6, Sigma, St Louis, MO, USA). […] Stretched preparation was made, and observe the flat bracket using a fluorescence microscope and take photos. The vascular density of capillary networks was analyzed using Angio Tool image analysis software. […]
Evans blue (45 mg/kg) was injected through the tail vein of mice for more than 10 s. […] Plasma Evans blue concentration was determined by taking 100 uL of blood. […]

On to `N=C(N)NCCC[C@H](NC(=O)[C@H](Cc1ccccc1)NC(=O)[C@H](CCCNC(=N)N)NC(=O)[C@H](CC(=O)O)NC(=O)[C@H](COP(=O)(O)O)NC(=O)CNC(=O)[C@@H]1CCCN1C(=O)[C@@H](N)Cc1ccccc1)C(=O)NCC(=O)N[C@@H](CC(=O)O)C(=O)O` [JP1] (HELM PEPTIDE1{F.P.G.[O=C([C@H](COP(=O)(O)O)N[*:1])[*:2]].D.R.F.R.G.D}$$$$V2.0; N-terminus and C-terminus assumed), for which the “accumulation of FITC at CNV lesions (retinal choroidal plain films)” value in the data set with CNV lesions is “enhanced the accumulation of FITC at CNV lesions”. Also, the solubility result in data set [1] is reported as “water-soluble”.

B1: Ranibizumab (antibody, chains of the INN, looked up, V domains shown)
VH: EVQLVESGGGLVQPGGSLRLSCAASGYDFTHYGMNWVRQAPGKGLEWVGWINTYTGEPTYAADFKRRFTFSLDTSKSTAYLQMNSLRAEDTAVYYCAKYPYYYGTSHWYFDVWGQGTLVTVSS
VL: DIQLTQSPSSLSASVGDRVTITCSASQDISNYLNWYQQKPGKAPKVLIYFTSSLHSGVPSRFSGSGSGTDFTLTISSLQPEDFATYYCQQYSTVPWTFGQGTKVEIK
modifications: Fab
notes: anti-VEGF antibody drug used as positive control
B1: the retinal vascular density entry in data set [2] is listed as “no significant decrease in retinal vascular density”.
